Test system: male spontaneously hypertensive rats
Test: Decrease in systolic blood pressure in spontaneously hypertensive rats after intravenous bolus injection, indirect (tail-cuff) method
Type: in vivo, rat
Settings: for Decrease in systolic blood pressure (mmHg) time after administration (hour) 0.5: 0.5 hour after administration; for Decrease in systolic blood pressure (mmHg) time after administration (hour) 4: 4 hours after administration
Description: As test animals, four male spontaneously hypertensive rats (weight 400 to 440 g) that were sufficiently adapted for feeding and in which hypertension was confirmed were used.
Physiological saline aqueous solution containing 2.5% Nicolle and 2.5% ethanol of sample was intravenously administered by bolus injection at a dose of 1 ml per 1 kg of body weight. Systolic blood pressure after administration was measured by the indirect (tail-cuff) method.

Cl.Cl.Nc1cccc(CCCN2CCC(=C3c4ccccc4C=Cc4ccccc43)CC2)c1 [Example 315, 1-(3-Aminophenyl)-3-(4-(5H-dibenzo[a,d]cyclohepten-5-ylidene)-1-piperidinyl)propane dihydrochloride]
Decrease in systolic blood pressure (mmHg) time after administration (hour) 0.5 (dose 10 mg/kg i.v. bolus): −43 mmHg | Decrease in systolic blood pressure (mmHg) time after administration (hour) 4 (dose 10 mg/kg i.v. bolus): −3 mmHg

CC(=O)Nc1cccc(CCCN2CCC(=C3c4ccccc4C=Cc4ccccc43)CC2)c1.Cl [Example 316, 1-(3-Acetylaminophenyl)-3-(4-(5H-dibenzo[a,d]cyclohepten-5-ylidene)-1-piperidinyl)propane hydrochloride]
Decrease in systolic blood pressure (mmHg) time after administration (hour) 0.5 (dose 1 mg/kg i.v. bolus): −100 mmHg | Decrease in systolic blood pressure (mmHg) time after administration (hour) 4 (dose 1 mg/kg i.v. bolus): 8 mmHg

COc1cc(CCCN2CCC(=C3c4ccccc4C=Cc4ccccc43)CC2)cc(OC)c1OC.Cl.Cl [Example 317, 3-(4-(5H-Dibenzo[a,d]cyclohepten-5-ylidene)-1-piperidinyl)-1-(3,4,5-trimethoxyphenyl)propane dihydrochloride]
Decrease in systolic blood pressure (mmHg) time after administration (hour) 0.5 (dose 10 mg/kg i.v. bolus): −118 mmHg | Decrease in systolic blood pressure (mmHg) time after administration (hour) 4 (dose 10 mg/kg i.v. bolus): −14 mmHg

COc1ccc2c(c1OC)CCC(CCN1CCC(=C3c4ccccc4C=Cc4ccccc43)CC1)C2.Cl (centres unmarked) [Example 318, 2-(3-(4-(5H-Dibenzo[a,d]cyclohepten-5-ylidene)-1-piperidinyl)-1-ethyl)-5,6-dimethoxy-1,2,34-tetrahydronaphthalene hydrochloride]
Decrease in systolic blood pressure (mmHg) time after administration (hour) 0.5 (dose 10 mg/kg i.v. bolus): −83 mmHg | Decrease in systolic blood pressure (mmHg) time after administration (hour) 4 (dose 10 mg/kg i.v. bolus): −57 mmHg

COC1=C(OC)CC2=CC=CC(CN3CCC(=C4c5ccccc5C=Cc5ccccc54)CC3)=CC2=C1.Cl [Example 319, 6-(4-(5H-Dibenzo[a,d]cyclohepten-5-ylidene)-1-piperidinyl)methyl-2,3-dimethoxybenzocycloheptene hydrochloride]
Decrease in systolic blood pressure (mmHg) time after administration (hour) 0.5 (dose 10 mg/kg i.v. bolus): −104 mmHg | Decrease in systolic blood pressure (mmHg) time after administration (hour) 4 (dose 10 mg/kg i.v. bolus): −20 mmHg

COc1cc(C=CCN2CCC(=C3c4ccccc4C=Cc4ccccc43)CC2)cc(OC)c1OC.Cl [Example 320, 4-(5H-Dibenzo[a,d]cyclohepten-5-ylidene)-1-(3,4,5-trimethoxycinnamyl)piperdine hydrochloride]
Decrease in systolic blood pressure (mmHg) time after administration (hour) 0.5 (dose 10 mg/kg i.v. bolus): −147 mmHg | Decrease in systolic blood pressure (mmHg) time after administration (hour) 4 (dose 10 mg/kg i.v. bolus): −113 mmHg

CC(=O)N1CCC(C=CCCCN2CCC(=C3c4ccccc4C=Cc4ccccc43)CC2)CC1.Cl.Cl [Example 321, 1-(N-Acetyl-4-piperidinyl)-5-(4-(5H-dibenzo[a,d]cyclohepten-5-ylidene)-1-piperidinyl)-1-pentene dihydrochloride]
Decrease in systolic blood pressure (mmHg) time after administration (hour) 0.5 (dose 10 mg/kg i.v. bolus): −60 mmHg | Decrease in systolic blood pressure (mmHg) time after administration (hour) 4 (dose 10 mg/kg i.v. bolus): −4 mmHg

COC(=O)c1c(C)nc(CCCCN2CCC(=C3c4ccccc4C=Cc4ccccc43)CC2)c(C(=O)OC)c1C.Cl [Example 323, 2-(4-(4-(5H-Dibenzo[a,d]cyclohepten-5-ylidene)-1-piperidinyl)-1-butyl)-3,4-5,6-tetramethylpyridine-3,5-dicarboxylate hydrochloride]
Decrease in systolic blood pressure (mmHg) time after administration (hour) 0.5 (dose 10 mg/kg i.v. bolus): −117 mmHg | Decrease in systolic blood pressure (mmHg) time after administration (hour) 4 (dose 10 mg/kg i.v. bolus): −11 mmHg

COC1CCC(CCCN2CCC(=C3c4ccccc4C=Cc4ccccc43)CC2)CC1.Cl (centres unmarked) [Example 324, 1-(1-(4-Methoxy)cyclohecyl)-3-(4-(5H-Dibenzo[a,d]cyclohepten-5-ylidene)-1-piperidinyl)propane hydrochloride]
Decrease in systolic blood pressure (mmHg) time after administration (hour) 0.5 (dose 10 mg/kg i.v. bolus): −137 mmHg | Decrease in systolic blood pressure (mmHg) time after administration (hour) 4 (dose 10 mg/kg i.v. bolus): −46 mmHg

Cl.O=[N+]([O-])c1ccc(C=CCN2CCC(=C3c4ccccc4C=Cc4ccccc43)CC2)cc1 [Example 325, (5H-Dibenzo[a,d]cyclohepten-5-ylidene)-1-(4-nitrocinnamyl)piperidine hydrochloride]
Decrease in systolic blood pressure (mmHg) time after administration (hour) 0.5 (dose 10 mg/kg i.v. bolus): −115 mmHg | Decrease in systolic blood pressure (mmHg) time after administration (hour) 4 (dose 10 mg/kg i.v. bolus): −100 mmHg

Source: patent USRE38257E1, “Piperdine derivatives and hypotensives containing the same” (Ajinomoto Co., Inc., priority 1988, dated 2003)
